{"source": "patent US8871681B2", "about": "“Herbicidal compositions comprising 4-amino-3-chloro-5-fluoro-6-(4-chloro-2-fluoro-3-methoxyphenyl) pyridine-2-carboxylic acid or a derivative thereof and certain sulfonylureas” (Dow AgroSciences LLC, priority 2012, dated 2014)", "test_system": "CIRAR (Cirsium arvense, Canada thistle)", "assay": "Post-emergence foliar-applied weed control in cereal crops, greenhouse (Example III)", "assay_type": "in vivo, Cirsium arvense (L.) Scop.", "conditions": "Cirsium arvense, post-emergence; Table 58 (cereal); foliar-applied; after 20-22 days; 3.75 gai/ha alone; read-out: Weed Control CIRAR Obs", "experimental": "Seeds of the desired test plant species were planted in Sun Gro MetroMix® 306 planting mixture, which typically has a pH of 6.0 to 6.8 and an organic matter content of about 30 percent, in plastic pots with a surface area of 103.2 square centimeters (cm^2). When required to ensure good germination and healthy plants, a fungicide treatment and/or other chemical or physical treatment was applied. The plants were grown for 7-36 days in a greenhouse with an approximate 14 hour photoperiod which was maintained at about 18° C. during the day and 17° C. during the night. Nutrients and water were added on a regular basis and supplemental lighting was provided with overhead metal halide 1000-Watt lamps as necessary. The plants were employed for testing when they reached the second or third true leaf stage.\nTreatments consisted of the benzyl ester of 4-amino-3-chloro-5-fluoro-6-(4-chloro-2-fluoro-3-methoxy-phenyl)pyridine-2-carboxylic acid (Compound A), formulated as an SC (suspension concentrate), and a second cereal herbicide alone and in combination.\nMeasured aliquot of benzyl ester of 4-amino-3-chloro-5-fluoro-6-(4-chloro-2-fluoro-3-methoxy-phenyl)pyridine-2-carboxylic acid (Compound A) was placed in 25 milliliter (mL) glass vials and diluted in a volume of 1.25% (v/v) Agri-dex crop oil concentrated to obtain stock solutions. Compound requirements are based upon a 12 mL application volume at a rate of 187 liters per hectare (L/ha). Spray solutions of the second cereal herbicide and experimental compound mixtures were prepared by adding the stock solutions to the appropriate amount of dilution solution to form 12 mL spray solution with active ingredients in two- and three-way combinations. Formulated compounds were applied to the plant material with an overhead Mandel track sprayer equipped with an 8002E nozzle calibrated to deliver 187 L/ha over an application area of 0.503 square meters (m^2) at a spray height of 18 inches (46 cm) above average plant canopy. Control plants were sprayed in the same manner with the solvent blank.\nThe treated plants and control plants were placed in a greenhouse as described above and watered by sub-irrigation to prevent wash-off of the test compounds. After 20-22 days, the condition of the test plants as compared with that of the control plants was determined visually and scored on a scale of 0 to 100 percent where 0 corresponds to no injury and 100 corresponds to complete kill.\nColby's equation was used to determine the herbicidal effects expected from the mixtures (Colby, S. R. 1967. Calculation of the synergistic and antagonistic response of herbicide combinations. Weeds 15:20-22.).\nThe following equation was used to calculate the expected activity of mixtures containing two active ingredients, A and B: Expected=A+B−(A×B/100)"}
{"compound": "COC(=O)c1sccc1S(=O)(=O)NC(=O)Nc1nc(C)nc(OC)n1", "note": "[Thifensulfuron-methyl]", "values": [{"measurement": "pest or weed control at 3.75 g/ha", "result": 35, "unit": "%"}]}
